# Experimental data as given in patent EP0329225A2, “Acetylenic esters” (MERCK & CO. INC., priority 1988, dated 1989).
# Molecular target: T1, Acetoacetyl-coenzyme A thiolase (Rattus norvegicus, UniProt Q5XI22)
# T1 construct: prepared from the livers of Sprague Dawley rats treated in the diet for one week with 0.075% lovastatin to induce the enzyme; from tissue; host or cells: liver of Sprague Dawley rats fed lovastatin
# Test: Acetoacetyl-coenzyme A thiolase inhibition (coupled spectrophotometric assay, NADH oxidation at 340 nm)
# Format: biochemical, Sprague Dawley rats
# Settings: not given
# Procedure: Acetoacetyl-coenzyme A thiolase was prepared from the livers of Sprague Dawley rats treated in the diet for one week with 0.075% lovastatin to induce the enzyme. Acetoacetyl-coenzyme A thiolase was purified through the DEAE-cellulose step essentially as described by Mehrabian et al., J. Biol. Chem., 261, 16249-16255 (1986), but modified slightly by carrying out the 30-50% ammonium sulfate precipitation of the enzyme and a dialysis before the DEAE-cellulose step. The 0.06 M eluate described by Mahrabian et al. contained the acetoacetyl-coenzyme A thiolase. The isolate was concentrated by ammonium sulfate precipitation, dissolved in the buffer used for elution, and stored at -70°C.
# Inhibition of acetoacetyl coenzyme A thiolase was measured by coupling the formation of acetoacetyl-coenzyme A to its subsequent reduction of β-hydroxybutyryl-coenzyme A dehydrogenase to β-hydroxybutyryl-coenzyme A and monitoring the resultant oxidation of NADH with a spectrophotometer set at 340 nm. Mixtures of 0.016 units of β-hydroxybutyryl-coenzyme A dehydrogenase, 16.2 µg of acetoacetyl coenzyme A thiolase, and test quantities of the test compounds dissolved in dimethyl sulfoxide and water to bring to final volume were incubated with 71.4 mM Tris-HCl (pH 7.5). 0.71 mM EDTA, 10.7 mM magnesium chloride, 0.53 mM dithiothreitol, 0.21 mM NADH (total volume of 0.140 ml) until a stable base line was obtained. Reaction was initiated by addition of 10 µl of acetoacetyl-coenzyme A, giving a concentration of 2.85 mM. Reaction was measured at room temperature for a time period necessary to produce a measurable reaction rate. An IC₅₀, the concentration that inhibits 50% of the acetoacetyl-coenzyme A thiolase activity, was determined for each test compound. The IC₅₀'s for representative compounds of this invention are listed in Table I. The IC₅₀ of 5-(1-hydroxy-2,4,6-heptatriynyl)-2-oxo-1,3-dioxolane-4-heptanoic acid has been reported as 1 x 10⁻⁸ M. See U.S. Patent Application Serial No. 07/053,973, filed May 26, 1987.
# T1 sequence (Q5XI22 whole entry): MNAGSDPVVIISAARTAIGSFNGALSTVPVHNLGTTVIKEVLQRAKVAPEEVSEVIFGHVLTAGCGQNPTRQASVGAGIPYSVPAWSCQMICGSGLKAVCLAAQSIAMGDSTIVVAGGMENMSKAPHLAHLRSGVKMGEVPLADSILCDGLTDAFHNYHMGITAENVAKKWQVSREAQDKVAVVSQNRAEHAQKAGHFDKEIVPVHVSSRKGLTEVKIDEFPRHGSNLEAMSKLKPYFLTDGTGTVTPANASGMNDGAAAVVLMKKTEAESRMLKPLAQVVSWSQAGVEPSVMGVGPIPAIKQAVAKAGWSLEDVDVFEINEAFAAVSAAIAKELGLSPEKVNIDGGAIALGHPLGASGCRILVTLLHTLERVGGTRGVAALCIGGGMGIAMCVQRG
row,Structure (SMILES),IC50 [nM]
1,"COC(=O)CCCCCCCCC(O)C#CC#C[Si](C)(C)C (stereo not drawn) [Ex. 5, 10-Hydroxy-14-(trimethylsilyl)-11,13-tetradecadiynoic acid, methyl ester]",> 62000
2,"COC(=O)CCCCCCCCC(O)C#CC#CC#C[Si](C)(C)C (stereo not drawn) [Ex. 3, 10-Hydroxy-16-(trimethylsilyl)-11,13,15-hexadecatriynoic acid, methyl ester]",17

# Same assay, conditions: enzyme from livers of lovastatin-treated rats; room temperature, pH 7.5; read-out: IC₅₀
row,IC50 [nM],Structure (SMILES)
1,150,"C#CC#CC#C[C@@H](O)[C@@H](O)[C@@H](O)CCCCCCC(=O)O [Ex. 1, 8(S),9(S),10(R)-Trihydroxy-11,13,15-hexadecatriynoic acid]"
2,26000,"C#CC#CC(O)CCCCCCCCC(=O)OC (stereo not drawn) [Ex. 6, 10-Hydroxy-11,13-tetradecadiynoic acid, methyl ester]"
3,38000,"C#CC#CC#C[C@@H](O)[C@@H](O)[C@@H](O)CCCCCCC(=O)OC [Ex. 2, 8(S),9(S),10(R)-Trihydroxy-11,13,15-hexadecatriynoic acid, methyl ester]"
4,24,"C#CC#CC#CC(O)CCCCCCCCC(=O)OC (stereo not drawn) [Ex. 4, 10-Hydroxy-11,13,15-hexadecatriynoic acid, methyl ester]"
